Experimental data reported in the kinase profiling compilation of Christmann-Franck et al. (2016).

Assays:
Experiment in all cases: radiometric filter-binding kinase assay
MAPKAPK3 (human) = MAPKAPK3 (human) (UniProt Q16644); conditions: compound 1.0 µM
SYK (human) = SYK (human) (UniProt P43405)
BRSK2 (human) = BRSK2 (human) (UniProt Q8IWQ3)
HIPK2 (human) = HIPK2 (human) (UniProt Q9H2X6)
MAP2K6 (human) = MAP2K6 (human) (UniProt P52564)
NEK2 (human) = NEK2 (human) (UniProt P51955)
PRKAA1 or PRKAA2 (rat) = conditions: accession and sequence are those of the human protein
RPS6KA1 KD1 KD2 (human) = RPS6KA1 KD1 KD2 (human) (UniProt Q15418)
Sequence of RPS6KA1 KD1 KD2 (human) (Q15418 whole entry, looked up): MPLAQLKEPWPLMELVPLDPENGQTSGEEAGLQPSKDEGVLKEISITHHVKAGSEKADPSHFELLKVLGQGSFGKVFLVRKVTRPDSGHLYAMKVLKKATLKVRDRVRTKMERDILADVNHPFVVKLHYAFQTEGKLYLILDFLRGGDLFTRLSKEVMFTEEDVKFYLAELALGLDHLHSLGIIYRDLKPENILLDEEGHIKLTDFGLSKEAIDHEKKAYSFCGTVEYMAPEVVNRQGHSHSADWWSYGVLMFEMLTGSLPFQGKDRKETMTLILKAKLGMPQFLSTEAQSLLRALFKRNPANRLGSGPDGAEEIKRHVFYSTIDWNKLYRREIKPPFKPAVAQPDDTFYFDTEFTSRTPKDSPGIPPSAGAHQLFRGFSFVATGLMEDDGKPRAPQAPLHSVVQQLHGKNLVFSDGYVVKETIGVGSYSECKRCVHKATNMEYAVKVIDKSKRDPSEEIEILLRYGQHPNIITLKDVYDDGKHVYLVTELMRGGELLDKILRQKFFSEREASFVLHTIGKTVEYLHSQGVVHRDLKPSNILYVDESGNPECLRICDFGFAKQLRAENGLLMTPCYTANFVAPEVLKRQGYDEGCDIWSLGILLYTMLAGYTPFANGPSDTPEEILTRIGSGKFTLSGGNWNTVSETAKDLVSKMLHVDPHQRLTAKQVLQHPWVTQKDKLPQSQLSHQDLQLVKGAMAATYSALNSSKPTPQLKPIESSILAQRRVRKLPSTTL

IKBKE (human) = IKBKE (human) (UniProt Q14164)
MAPK8 (human) = MAPK8 (human) (UniProt P45983)
Sequence of MAPK8 (human) (P45983 whole entry, looked up): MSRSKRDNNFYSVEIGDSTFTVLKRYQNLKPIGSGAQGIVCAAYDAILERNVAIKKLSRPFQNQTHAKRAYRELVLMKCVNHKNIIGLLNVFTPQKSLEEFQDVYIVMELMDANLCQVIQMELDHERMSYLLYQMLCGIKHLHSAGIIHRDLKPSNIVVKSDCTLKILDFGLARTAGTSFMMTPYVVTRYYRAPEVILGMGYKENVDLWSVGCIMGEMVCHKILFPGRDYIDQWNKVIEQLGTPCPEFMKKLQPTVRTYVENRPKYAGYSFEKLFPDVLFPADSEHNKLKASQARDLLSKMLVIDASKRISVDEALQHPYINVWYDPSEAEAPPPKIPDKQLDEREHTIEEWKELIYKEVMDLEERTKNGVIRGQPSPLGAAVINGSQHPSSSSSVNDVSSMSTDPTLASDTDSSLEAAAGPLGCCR

MAPK10 (human) = MAPK10 (human) (UniProt P53779)
DYRK1A (human) = DYRK1A (human) (UniProt Q13627)
EPHB2 (human) = EPHB2 (human) (UniProt P29323)
ERBB4 (human) = ERBB4 (human) (UniProt Q15303)
Sequence of ERBB4 (human) (Q15303 whole entry, looked up): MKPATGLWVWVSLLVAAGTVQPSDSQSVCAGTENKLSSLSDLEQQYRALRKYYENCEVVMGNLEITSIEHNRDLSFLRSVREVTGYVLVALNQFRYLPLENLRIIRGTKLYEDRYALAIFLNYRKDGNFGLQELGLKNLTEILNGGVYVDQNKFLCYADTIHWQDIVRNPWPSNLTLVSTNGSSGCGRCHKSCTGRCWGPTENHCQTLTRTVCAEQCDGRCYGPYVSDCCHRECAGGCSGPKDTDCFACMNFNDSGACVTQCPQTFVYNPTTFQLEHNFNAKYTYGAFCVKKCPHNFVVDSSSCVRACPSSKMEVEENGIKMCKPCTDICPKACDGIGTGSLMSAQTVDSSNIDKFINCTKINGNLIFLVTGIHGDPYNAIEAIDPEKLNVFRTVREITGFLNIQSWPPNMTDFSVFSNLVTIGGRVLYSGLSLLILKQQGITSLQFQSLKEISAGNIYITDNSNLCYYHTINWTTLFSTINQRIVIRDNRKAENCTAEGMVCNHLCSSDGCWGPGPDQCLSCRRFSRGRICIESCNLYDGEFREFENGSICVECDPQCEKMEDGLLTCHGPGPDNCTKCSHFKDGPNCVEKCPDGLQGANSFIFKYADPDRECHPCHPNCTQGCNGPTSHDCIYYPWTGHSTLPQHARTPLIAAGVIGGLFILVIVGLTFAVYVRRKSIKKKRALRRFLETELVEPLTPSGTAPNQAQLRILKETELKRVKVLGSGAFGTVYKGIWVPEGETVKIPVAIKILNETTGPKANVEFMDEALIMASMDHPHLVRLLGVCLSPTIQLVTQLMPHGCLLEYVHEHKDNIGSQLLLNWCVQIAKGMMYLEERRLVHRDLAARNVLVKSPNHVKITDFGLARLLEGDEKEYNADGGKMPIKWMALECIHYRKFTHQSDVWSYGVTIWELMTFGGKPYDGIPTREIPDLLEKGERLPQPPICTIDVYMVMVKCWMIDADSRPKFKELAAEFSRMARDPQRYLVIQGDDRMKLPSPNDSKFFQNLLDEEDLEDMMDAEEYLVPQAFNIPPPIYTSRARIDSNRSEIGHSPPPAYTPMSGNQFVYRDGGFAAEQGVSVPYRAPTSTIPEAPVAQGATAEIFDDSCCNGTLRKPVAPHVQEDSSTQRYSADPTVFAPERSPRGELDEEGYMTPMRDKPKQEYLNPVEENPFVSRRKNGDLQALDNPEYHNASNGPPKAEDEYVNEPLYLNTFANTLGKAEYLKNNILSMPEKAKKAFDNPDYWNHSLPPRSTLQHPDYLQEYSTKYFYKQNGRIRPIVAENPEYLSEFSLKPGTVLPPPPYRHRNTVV

PAK7 (human) = PAK7 (human) (UniProt Q9P286)
CaMK1 (human) = CaMK1 (human) (UniProt Q14012)
MAPK12 (human) = MAPK12 (human) (UniProt P53778)
Sequence of MAPK12 (human) (P53778 whole entry, looked up): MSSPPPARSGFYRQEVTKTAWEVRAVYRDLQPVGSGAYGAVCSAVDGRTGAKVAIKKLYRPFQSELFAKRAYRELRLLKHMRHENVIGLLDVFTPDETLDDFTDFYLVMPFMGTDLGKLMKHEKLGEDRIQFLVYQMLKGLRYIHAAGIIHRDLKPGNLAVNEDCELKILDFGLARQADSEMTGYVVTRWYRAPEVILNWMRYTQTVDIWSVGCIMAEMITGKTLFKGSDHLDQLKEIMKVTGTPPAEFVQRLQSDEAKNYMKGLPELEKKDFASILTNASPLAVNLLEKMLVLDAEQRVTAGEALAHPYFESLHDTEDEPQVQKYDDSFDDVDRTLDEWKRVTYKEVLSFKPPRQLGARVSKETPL

[1] = tested on: AKT1 (human), P31749 [S473D]
Sequence of AKT1 (human), P31749 [S473D] (P31749 whole entry S473D, looked up): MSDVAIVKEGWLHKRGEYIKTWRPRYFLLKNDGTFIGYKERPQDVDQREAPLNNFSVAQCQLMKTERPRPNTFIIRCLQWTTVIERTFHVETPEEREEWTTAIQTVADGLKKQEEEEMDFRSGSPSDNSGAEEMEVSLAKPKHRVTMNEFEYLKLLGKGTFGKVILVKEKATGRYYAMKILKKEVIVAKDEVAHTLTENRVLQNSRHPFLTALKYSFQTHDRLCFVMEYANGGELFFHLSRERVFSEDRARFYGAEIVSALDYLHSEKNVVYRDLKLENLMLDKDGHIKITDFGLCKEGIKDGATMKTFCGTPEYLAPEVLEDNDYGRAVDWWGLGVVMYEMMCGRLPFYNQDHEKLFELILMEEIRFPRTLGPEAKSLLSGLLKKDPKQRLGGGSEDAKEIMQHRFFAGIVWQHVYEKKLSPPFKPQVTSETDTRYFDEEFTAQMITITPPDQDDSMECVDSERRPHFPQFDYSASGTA

MAP3K11 (human) = MAP3K11 (human) (UniProt Q16584)
MKNK1 (human) = MKNK1 (human) (UniProt Q9BUB5); conditions: compound 1.0 µM
MARK2 (human) = MARK2 (human) (UniProt Q7KZI7)
EPHB3 (human) = EPHB3 (human) (UniProt P54753); conditions: compound 1.0 µM
PLK1 (human) = PLK1 (human) (UniProt P53350)
DYRK2 (human) = DYRK2 (human) (UniProt Q92630)
Sequence of DYRK2 (human) (Q92630 whole entry, looked up): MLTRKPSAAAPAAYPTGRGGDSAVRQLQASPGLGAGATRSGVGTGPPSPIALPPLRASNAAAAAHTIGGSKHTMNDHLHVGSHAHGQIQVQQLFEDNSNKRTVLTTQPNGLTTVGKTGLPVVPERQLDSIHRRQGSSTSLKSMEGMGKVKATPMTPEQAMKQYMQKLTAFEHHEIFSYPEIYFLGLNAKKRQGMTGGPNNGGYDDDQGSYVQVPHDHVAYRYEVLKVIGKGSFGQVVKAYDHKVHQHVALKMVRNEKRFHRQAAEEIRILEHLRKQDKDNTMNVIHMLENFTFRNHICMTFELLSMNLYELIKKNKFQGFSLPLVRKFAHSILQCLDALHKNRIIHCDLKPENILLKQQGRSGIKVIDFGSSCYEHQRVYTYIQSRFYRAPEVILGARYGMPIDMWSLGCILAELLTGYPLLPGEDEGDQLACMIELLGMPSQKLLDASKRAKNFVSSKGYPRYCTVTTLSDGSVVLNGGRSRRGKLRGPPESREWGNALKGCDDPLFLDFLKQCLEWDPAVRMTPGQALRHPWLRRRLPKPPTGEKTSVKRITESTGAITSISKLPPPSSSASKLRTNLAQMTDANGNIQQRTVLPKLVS

MST4 (human) = MST4 (human) (UniProt Q9P289)
PRKACA (human) = PRKACA (human) (UniProt P17612)
PRKCA (human) = PRKCA (human) (UniProt P17252)
NUAK1 (human) = NUAK1 (human) (UniProt O60285)
MAPK13 (human) = MAPK13 (human) (UniProt O15264)
PAK4 (human) = PAK4 (human) (UniProt O96013); conditions: compound 1.0 µM
AURKA (human) = AURKA (human) (UniProt O14965)
Sequence of AURKA (human) (O14965 whole entry, looked up): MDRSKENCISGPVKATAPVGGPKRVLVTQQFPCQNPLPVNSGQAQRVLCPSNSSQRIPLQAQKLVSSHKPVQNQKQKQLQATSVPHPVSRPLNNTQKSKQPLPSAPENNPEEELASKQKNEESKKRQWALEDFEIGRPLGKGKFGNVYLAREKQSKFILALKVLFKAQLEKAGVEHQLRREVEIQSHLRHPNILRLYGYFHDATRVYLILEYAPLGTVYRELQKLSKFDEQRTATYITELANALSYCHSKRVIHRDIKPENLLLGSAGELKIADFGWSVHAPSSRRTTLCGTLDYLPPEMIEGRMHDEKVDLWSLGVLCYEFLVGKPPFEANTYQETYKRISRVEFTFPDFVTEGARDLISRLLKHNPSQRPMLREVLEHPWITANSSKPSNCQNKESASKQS

CHEK2 (human) = CHEK2 (human) (UniProt O96017)
Sequence of CHEK2 (human) (O96017 whole entry, looked up): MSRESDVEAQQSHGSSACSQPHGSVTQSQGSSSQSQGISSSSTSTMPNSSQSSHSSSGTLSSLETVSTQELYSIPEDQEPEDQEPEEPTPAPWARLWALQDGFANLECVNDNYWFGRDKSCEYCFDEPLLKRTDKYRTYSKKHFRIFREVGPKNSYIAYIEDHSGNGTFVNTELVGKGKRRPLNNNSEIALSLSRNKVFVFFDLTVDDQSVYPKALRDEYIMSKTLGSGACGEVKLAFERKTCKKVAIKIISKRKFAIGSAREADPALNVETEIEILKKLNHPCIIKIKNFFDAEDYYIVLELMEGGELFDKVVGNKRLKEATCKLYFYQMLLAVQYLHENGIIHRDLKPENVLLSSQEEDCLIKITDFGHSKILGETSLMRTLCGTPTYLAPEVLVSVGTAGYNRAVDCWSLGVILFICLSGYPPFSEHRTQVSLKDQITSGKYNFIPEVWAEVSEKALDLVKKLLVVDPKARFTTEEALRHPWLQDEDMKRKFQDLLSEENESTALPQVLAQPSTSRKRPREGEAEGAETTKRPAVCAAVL

MAPK1 (human) = MAPK1 (human) (UniProt P28482)
MAPK3 (human) = MAPK3 (human) (UniProt P27361)

`Cc1cc(NC(=O)c2cccc(NC(=O)/C=C/CN(C)C)c2)ccc1Nc1nccc(-c2cccnc2)n1` was tested. Which residual activity (MAPKAPK3 (human)) did it give?
The residual activity was 90%.

And the residual activity (SYK (human); compound 0.1 µM)?
Its residual activity is 103%.

What about the residual activity (SYK (human); compound 1.0 µM) of the same molecule?
Its residual activity is 88%.

What about the residual activity (BRSK2 (human); compound 0.1 µM) of the same molecule?
The residual activity was 87%.

What about the residual activity (BRSK2 (human); compound 1.0 µM) of the same molecule?
Its residual activity is 77%.

What about the residual activity (HIPK2 (human); compound 0.1 µM) of the same molecule?
The residual activity was 92%.

What about the residual activity (HIPK2 (human); compound 1.0 µM) of the same molecule?
Its residual activity is 99%.

What about the residual activity (MAP2K6 (human); compound 0.1 µM) of the same molecule?
The residual activity was 100%.

And the residual activity (MAP2K6 (human); compound 1.0 µM)?
The residual activity was 95%.

What about the residual activity (NEK2 (human); compound 0.1 µM) of the same molecule?
Its residual activity is 105%.

And the residual activity (NEK2 (human); compound 1.0 µM)?
Its residual activity is 100%.

And the residual activity (PRKAA1 or PRKAA2 (rat); compound 0.1 µM)?
The residual activity was 101%.

What about the residual activity (PRKAA1 or PRKAA2 (rat); compound 1.0 µM) of the same molecule?
Its residual activity is 77%.

What about the residual activity (RPS6KA1 KD1 KD2 (human); compound 0.1 µM) of the same molecule?
The residual activity was 89%.

What about the residual activity (RPS6KA1 KD1 KD2 (human); compound 1.0 µM) of the same molecule?
Its residual activity is 81%.

And the residual activity (IKBKE (human); compound 0.1 µM)?
The residual activity was 92%.

What about the residual activity (IKBKE (human); compound 1.0 µM) of the same molecule?
The residual activity was 94%.

What about the residual activity (MAPK8 (human); compound 0.1 µM) of the same molecule?
Its residual activity is 13%.

What about the residual activity (MAPK8 (human); compound 1.0 µM) of the same molecule?
The residual activity was 6%.

What about the residual activity (MAPK10 (human); compound 0.1 µM) of the same molecule?
The residual activity was 14%.

And the residual activity (MAPK10 (human); compound 1.0 µM)?
Its residual activity is 13%.

What about the residual activity (DYRK1A (human); compound 0.1 µM) of the same molecule?
Its residual activity is 98%.

What about the residual activity (DYRK1A (human); compound 1.0 µM) of the same molecule?
Its residual activity is 84%.

What about the residual activity (EPHB2 (human); compound 0.1 µM) of the same molecule?
Its residual activity is 101%.

And the residual activity (EPHB2 (human); compound 1.0 µM)?
Its residual activity is 97%.

And the residual activity (ERBB4 (human); compound 0.1 µM)?
The residual activity was 102%.

And the residual activity (ERBB4 (human); compound 1.0 µM)?
Its residual activity is 98%.

And the residual activity (PAK7 (human); compound 0.1 µM)?
The residual activity was 100%.

What about the residual activity (PAK7 (human); compound 1.0 µM) of the same molecule?
The residual activity was 82%.

And the residual activity (CaMK1 (human); compound 0.1 µM)?
The residual activity was 92%.

And the residual activity (CaMK1 (human); compound 1.0 µM)?
Its residual activity is 86%.

And the residual activity (MAPK12 (human); compound 0.1 µM)?
The residual activity was 99%.

And the residual activity (MAPK12 (human); compound 1.0 µM)?
Its residual activity is 95%.

What about the residual activity ([1]; compound 0.1 µM) of the same molecule?
The residual activity was 102%.

And the residual activity ([1]; compound 1.0 µM)?
The residual activity was 98%.

And the residual activity (MAP3K11 (human); compound 0.1 µM)?
The residual activity was 95%.

And the residual activity (MAP3K11 (human); compound 1.0 µM)?
Its residual activity is 94%.

And the residual activity (MKNK1 (human))?
Its residual activity is 88%.

And the residual activity (MARK2 (human); compound 0.1 µM)?
Its residual activity is 99%.

What about the residual activity (MARK2 (human); compound 1.0 µM) of the same molecule?
Its residual activity is 85%.

And the residual activity (EPHB3 (human))?
The residual activity was 105%.

What about the residual activity (PLK1 (human); compound 0.1 µM) of the same molecule?
The residual activity was 98%.

What about the residual activity (PLK1 (human); compound 1.0 µM) of the same molecule?
The residual activity was 94%.

What about the residual activity (DYRK2 (human); compound 0.1 µM) of the same molecule?
Its residual activity is 73%.

And the residual activity (DYRK2 (human); compound 1.0 µM)?
Its residual activity is 72%.

What about the residual activity (MST4 (human); compound 0.1 µM) of the same molecule?
Its residual activity is 96%.

What about the residual activity (MST4 (human); compound 1.0 µM) of the same molecule?
Its residual activity is 79%.

And the residual activity (PRKACA (human); compound 0.1 µM)?
The residual activity was 105%.

What about the residual activity (PRKACA (human); compound 1.0 µM) of the same molecule?
The residual activity was 93%.

And the residual activity (PRKCA (human); compound 0.1 µM)?
The residual activity was 93%.

And the residual activity (PRKCA (human); compound 1.0 µM)?
The residual activity was 90%.

What about the residual activity (NUAK1 (human); compound 0.1 µM) of the same molecule?
Its residual activity is 79%.

And the residual activity (NUAK1 (human); compound 1.0 µM)?
Its residual activity is 49%.

What about the residual activity (MAPK13 (human); compound 0.1 µM) of the same molecule?
Its residual activity is 96%.

And the residual activity (MAPK13 (human); compound 1.0 µM)?
Its residual activity is 80%.

What about the residual activity (PAK4 (human)) of the same molecule?
Its residual activity is 78%.

What about the residual activity (AURKA (human); compound 0.1 µM) of the same molecule?
The residual activity was 97%.

What about the residual activity (AURKA (human); compound 1.0 µM) of the same molecule?
Its residual activity is 91%.

What about the residual activity (CHEK2 (human); compound 0.1 µM) of the same molecule?
Its residual activity is 102%.

And the residual activity (CHEK2 (human); compound 1.0 µM)?
The residual activity was 72%.

What about the residual activity (MAPK1 (human); compound 0.1 µM) of the same molecule?
Its residual activity is 110%.

And the residual activity (MAPK1 (human); compound 1.0 µM)?
The residual activity was 100%.

What about the residual activity (MAPK3 (human); compound 0.1 µM) of the same molecule?
The residual activity was 103%.

What about the residual activity (MAPK3 (human); compound 1.0 µM) of the same molecule?
The residual activity was 99%.
